In patent publication US20230348401A1, “Inhibitors of Glucose-6-phosphate Dehydrogenase and Uses Thereof” (The Trustees of Princeton University, priority 2020, published 2023):
Where “and” joins values, the source holds several entries; their conditions need not be identical. Identical values can stand only once. Like-named read-outs stand apart in the source and are kept apart here.

Target: G6PD (Homo sapiens, UniProt P11413)
Assay: G6PD enzymatic activity by diaphorase-coupled assay
[1] = Normalized in vitro IC50, Table 1, diaphorase-coupled biochemical assay, normalization to an intraplate control

Chain of G6PD (P11413 28-515): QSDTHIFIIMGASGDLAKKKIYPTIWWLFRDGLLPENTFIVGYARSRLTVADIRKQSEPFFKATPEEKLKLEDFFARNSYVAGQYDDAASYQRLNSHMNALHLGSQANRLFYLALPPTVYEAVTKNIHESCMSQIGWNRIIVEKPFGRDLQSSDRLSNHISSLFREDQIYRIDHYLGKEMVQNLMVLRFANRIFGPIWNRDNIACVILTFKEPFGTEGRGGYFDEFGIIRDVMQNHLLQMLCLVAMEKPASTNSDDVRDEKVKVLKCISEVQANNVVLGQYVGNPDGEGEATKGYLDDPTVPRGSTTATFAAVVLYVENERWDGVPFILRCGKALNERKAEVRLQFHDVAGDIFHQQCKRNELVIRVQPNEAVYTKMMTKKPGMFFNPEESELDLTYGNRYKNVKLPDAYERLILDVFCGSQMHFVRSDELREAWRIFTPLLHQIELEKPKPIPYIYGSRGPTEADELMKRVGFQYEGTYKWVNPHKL

| IC50 | IC50 [1] | SMILES |
| --- | --- | --- |
|  | < 1 µM | O=C1CCCc2nc(Nc3ccc4[nH]ncc4c3)ncc21 [KG-0232-0] |
|  | > 1000 µM | O=C(O)c1cccc(Nc2ncc3c(n2)CCCC3=O)c1 [KG-0237-0] |
|  | 1 to 1000 µM | NC(=O)c1cccc(Nc2ncc3c(n2)CCCC3=O)c1 [KG-0238-0] |
|  | 1 to 1000 µM | CCOc1cccc(Nc2ncc3c(n2)CCCC3=O)c1 [KG-0239-0] |
|  | 1 to 1000 µM | O=C1CCCc2nc(Nc3cccc(CO)c3)ncc21 [KG-0240-0] |
|  | 1 to 1000 µM | O=C1CCCc2nc(Nc3cccc(-c4nnn[nH]4)c3)ncc21 [KG-0241-0] |
|  | 1 to 1000 µM | O=C1CCCc2nc(Nc3cccc(C4(O)COC4)c3)ncc21 [KG-0242-0] |
| 1 to 1000 µM |  | N#Cc1cccc(Nc2ncc3c(n2)CCCS3(=O)=O)c1 [KG-0249-0] |
|  | 1 to 1000 µM | O=C1CCCc2nc(Nc3cccc(Oc4ccccc4)c3)ncc21 [KG-0251-0] |
|  | 1 to 1000 µM | O=C1CCCc2nc(Nc3cccc(OCc4ccccc4)c3)ncc21 [KG-0252-0] |
| < 1 µM |  | N#Cc1cc(Nc2ncc3c(n2)CCCC3=O)cs1 [KG-0254-0A] |
|  | < 1 µM | COc1cc(C#N)cc(Nc2ncc3c(n2)CCCC3=O)c1 [KG-0255-0] |
|  | < 1 µM | COc1cc(Cl)cc(Nc2ncc3c(n2)CCCC3=O)c1 [KG-0256-0] |
|  | > 1000 µM | O=C(Nc1ncc2c(n1)CCCC2=O)c1ccccc1 [KG-0258-0] |
| > 1000 µM |  | CO/N=C1\CCCc2nc(Nc3cccc(C#N)c3)ncc21 [KG-0260-0] |
| 1 to 1000 µM |  | N#Cc1cccc(Nc2ncc3c(n2)CCCC3O)c1 (centres unmarked) [KG-0261-10] |

| IC50 | IC50 [1] | SMILES |
| --- | --- | --- |
|  | < 1 µM | N#Cc1cc(Cl)cc(Nc2ncc3c(n2)CCCC3=O)c1 [KG-0265-0] |
|  | 1 to 1000 µM | CCNC(=O)Nc1cccc(Nc2ncc3c(n2)CCCC3=O)c1 [KG-0283-0] |
|  | < 1 µM | N#Cc1cccc(Nc2ncc3c(n2)CCC(O)C3=O)c1 (centres unmarked) [KG-0315-0A] |
| < 1 µM |  | N#Cc1cc(Nc2ncc3c(n2)CCC(Br)C3=O)cs1 (centres unmarked) [KG-0316] |
| < 1 µM |  | N#Cc1cc(Nc2ncc3c(n2)CCC(O)C3=O)cs1 (centres unmarked) [KG-0317] |
| < 1 µM |  | N#Cc1cc(Nc2ncc3c(n2)CCC(C(F)(F)F)C3=O)cs1 (centres unmarked) [KG-0318] |
| < 1 µM |  | COC1CCc2nc(Nc3csc(C#N)c3)ncc2C1=O (centres unmarked) [KG-0321] |
| 1 to 1000 µM |  | N#Cc1cccc(Nc2ncc3c(n2)CCCC(O)C3=O)c1 (centres unmarked) [KG-0331] |
| 1 to 1000 µM |  | O=C1c2cnc(Nc3cccc(Cl)c3)nc2CCCC1O (centres unmarked) [KG-0332-0] |
| < 1 µM |  | N#Cc1cc(Nc2ncc3c(n2)CCCC(O)C3=O)cs1 (centres unmarked) [KG-0333-0] |
| < 1 µM |  | N#Cc1cccc(Nc2ncc3c(n2)CCCC(Br)C3=O)c1 (centres unmarked) [KG-0334] |
| < 1 µM |  | O=C1c2cnc(Nc3cccc(Cl)c3)nc2CCCC1Br (centres unmarked) [KG-0335-0] |
| < 1 µM |  | N#Cc1cc(Nc2ncc3c(n2)CCCC(Br)C3=O)cs1 (centres unmarked) [KG-0336-0] |
| 1 to 1000 µM |  | N#Cc1cc(Nc2ncc3c(n2)CCCCC3=O)c(C(F)(F)F)s1 [KG-0337-0A] |
| < 1 µM |  | N#Cc1cc(Nc2ncc3c(n2)CCCC(C(F)(F)F)C3=O)cs1 (centres unmarked) [KG-0337-0] |
|  | < 1 µM | O=C1CCCCc2nc(Nc3cccc(F)c3)ncc21 [KG-0339] |

Further lines, the compound ahead of its results:

| SMILES | IC50 | IC50 [1] |
| --- | --- | --- |
| N#Cc1cc(Nc2ncc3c(n2)CCCCC3=O)cc(OCC23C[C@H]4C[C@@H](C2)C[C@@H](C3)C4)c1 [Compound 0105] | > 1000 µM |  |
| CC(C)(C)COc1cc(C#N)cc(Nc2ncc3c(n2)CCCCC3=O)c1 [Compound 0106] | > 1000 µM |  |
| N#Cc1cc(Nc2ncc3c(n2)CCCCC3=O)cc(OCc2cccnc2)c1 [Compound 0118] | < 1 µM |  |
| N#Cc1cc(Nc2ncc3c(n2)CCCCC3=O)cc(OCc2ccccn2)c1 [Compound 0121] | < 1 µM |  |
| COc1ccccc1COc1cc(C#N)cc(Nc2ncc3c(n2)CCCCC3=O)c1 [Compound 0122] | < 1 µM |  |
| N#Cc1cc(Nc2ncc3c(n2)CCCCC3=O)cc(OCc2cnoc2)c1 [Compound 0123] | < 1 µM |  |
| N#Cc1cc(Nc2ncc3c(n2)CCCCC3=O)cc(OCC2CCOCC2)c1 [Compound 0124] | < 1 µM |  |
| COCCOc1cc(C#N)cc(Nc2ncc3c(n2)CCCCC3=O)c1 [Compound 0125] | < 1 µM |  |
| N#Cc1cc(Nc2ncc3c(n2)CCCCC3=O)cc(OCCN)c1 [Compound 0128] | 1 to 1000 µM |  |
| N#Cc1cc(Nc2ncc3c(n2)CCCNC3=O)cs1 [Compound 0135] | 1 to 1000 µM |  |
| N#Cc1cc(Nc2ncc3c(n2)CCCCC3C(C#N)C#N)cs1 (centres unmarked) [Compound 0136] | 1 to 1000 µM |  |
| CCCc1cc(C#N)cc(Nc2ncc3c(n2)CCCCC3=O)c1 [Compound 0161] | 1 to 1000 µM |  |
| CCCCc1cc(C#N)cc(Nc2ncc3c(n2)CCCCC3=O)c1 [Compound 0162] | 1 to 1000 µM |  |
| N#Cc1cc(CS(=O)(=O)C(F)(F)F)cc(Nc2ncc3c(n2)CCCCC3=O)c1 [Compound 0163] | 1 to 1000 µM |  |
| Cc1cccc(Nc2ncc3c(n2)CCCC3=O)c1 [KG-0051-0] |  | 1 to 1000 µM |
| Cc1cccc(Nc2ccc3c(n2)CCCC3=O)c1 [KG-0052] | > 1000 µM |  |
| Cc1cccc(Nc2ccc3c(c2)CCCC3=O)c1 [KG-0054] | > 1000 µM |  |
| Cc1cccc(Nc2ncc3c(n2)CCNC3=O)c1 [KG-0055-0] | 1 to 1000 µM |  |
| Cc1ccccc1Nc1ncc2c(n1)CCCC2=O [KG-0056-0A] |  | 1 to 1000 µM |
| Cc1cccc(Nc2ccc3c(c2)CCNC3=O)c1 [KG-0057] | > 1000 µM |  |
| Cc1cccc(Nc2ncc3c(n2)CCCC3=O)c1C [KG-0060-0] |  | > 1000 µM |

| SMILES | IC50 | IC50 [1] |
| --- | --- | --- |
| O=C1CCCc2nc(Nc3cccc(F)c3)ncc21 [KG-0061-0] |  | < 1 µM |
| N#Cc1cccc(Nc2ncc3c(n2)CCCC3=O)c1 [KG-0062-0] |  | < 1 µM |
| O=C1CCCc2nc(Nc3cccc(C(F)(F)F)c3)ncc21 [KG-0063-0] |  | 1 to 1000 µM |
| COC(=O)c1cccc(Nc2ncc3c(n2)CCCC3=O)c1 [KG-0064-0] |  | 1 to 1000 µM |
| O=C1CCCc2nc(Nc3cccc(Cl)c3)ncc21 [KG-0065-0] |  | < 1 µM |
| Cc1cccc(Nc2ncc3c(n2)CCC3=O)c1 [KG-0138-0] |  | 1 to 1000 µM |
| Cc1cccc(Oc2ncc3c(n2)CCCC3=O)c1 [KG-0141-0] | > 1000 µM |  |
| O=C1CCCc2nc(NCc3cccnc3)ncc21 [KG-0162-0] | 1 to 1000 µM |  |
| O=C1CCCc2nc(NCc3ccncc3)ncc21 [KG-0163-0] | 1 to 1000 µM |  |
| O=C1CCCc2nc(NCc3ccccc3)ncc21 [KG-0164-0] |  | 1 to 1000 µM |
| CC(Nc1ncc2c(n1)CCCC2=O)c1ccccc1 (centres unmarked) [KG-0165-0] |  | 1 to 1000 µM and > 1000 µM |
| O=C1CCCc2nc(Nc3ccc4cc[nH]c4c3)ncc21 [KG-0166-0] |  | 1 to 1000 µM |
| O=C1CCCc2nc(Nc3cccc(Br)c3)ncc21 [KG-0167-0A] |  | 1 to 1000 µM |
| O=C1CCCc2nc(Nc3cccc(Br)c3)ncc21 [KG-0167] |  | 1 to 1000 µM |
| O=C1CCCc2nc(Nc3ccc4[nH]ccc4c3)ncc21 [KG-0168-0] |  | 1 to 1000 µM |
| CN(c1cccc(C#N)c1)c1ncc2c(n1)CCCC2=O [KG-0176] |  | > 1000 µM |
| C#Cc1cccc(Nc2ncc3c(n2)CCCC3=O)c1 [KG-0183-0] |  | 1 to 1000 µM |
| N#Cc1cccc(Nc2ncc3c(n2)CCCCC3=O)c1 [KG-0184-0A] |  | < 1 µM |
| COc1cccc(Nc2ncc3c(n2)CCCC3=O)c1 [KG-0185-0] |  | 1 to 1000 µM |
| O=C1CCCc2nc(Nc3cccc(O)c3)ncc21 [KG-0186-0A] |  | < 1 µM |
| O=C1CCCc2nc(Nc3ccccc3)ncc21 [KG-0187-0] |  | 1 to 1000 µM |

| SMILES | IC50 | IC50 [1] |
| --- | --- | --- |
| Cc1ccc(Nc2ncc3c(n2)CCCC3=O)cc1C [KG-0188-0] |  | 1 to 1000 µM |
| N#Cc1cccc(Nc2ncc3c(n2)COCC3=O)c1 [KG-0190-0] | 1 to 1000 µM |  |
| N#Cc1cncc(Nc2ncc3c(n2)CCCC3=O)c1 [KG-0198-0] | 1 to 1000 µM |  |
| O=C1CCCc2nc(Nc3cccc(C4CC4)c3)ncc21 [KG-0203-0] |  | 1 to 1000 µM |
| CC#Cc1cccc(Nc2ncc3c(n2)CCCC3=O)c1 [KG-0204-0] |  | 1 to 1000 µM |
| CC1CCc2nc(Nc3cccc(C#N)c3)ncc2C1=O (centres unmarked) [KG-0205-0] |  | < 1 µM |
| N#Cc1cccc(Nc2ncc3c(n2)CCC(Br)C3=O)c1 (centres unmarked) [KG-0206-0] |  | < 1 µM |
| O=C1CCCc2nc(Nc3nc4ccccc4[nH]3)ncc21 [KG-0209-0] |  | 1 to 1000 µM |
| O=C1CCCc2nc(Nc3nc4ccccc4s3)ncc21 [KG-0211-0] |  | > 1000 µM |
| O=C1CCCc2nc(Nc3ncco3)ncc21 [KG-0213-0] | > 1000 µM |  |
| O=C1CCCc2nc(Nc3nccs3)ncc21 [KG-0214-0] | 1 to 1000 µM |  |
| O=C1CCCc2nc(Nc3ccon3)ncc21 [KG-0215-0] |  | 1 to 1000 µM |
| O=C1CCCc2nc(Nc3cc[nH]n3)ncc21 [KG-0216-0] |  | > 1000 µM |
| Cc1csc(Nc2ncc3c(n2)CCCC3=O)n1 [KG-0219-0] | 1 to 1000 µM |  |
| Cc1cc(Nc2ncc3c(n2)CCCC3=O)no1 [KG-0220-0] | 1 to 1000 µM |  |
| O=C1CCCc2nc(Nc3ccc4nc[nH]c4c3)ncc21 [KG-0223-0] |  | 1 to 1000 µM |
| O=C1CCCc2nc(Nc3ccc4ncsc4c3)ncc21 [KG-0224-0] |  | 1 to 1000 µM |
| O=C1CCCc2nc(Nc3ccc4scnc4c3)ncc21 [KG-0227-0] |  | 1 to 1000 µM |
| O=C1CCCc2nc(Nc3ccc4occc4c3)ncc21 [KG-0228-0] |  | 1 to 1000 µM |
| O=C1CCCc2nc(Nc3ccc4cn[nH]c4c3)ncc21 [KG-0229-0] |  | 1 to 1000 µM |
| N#Cc1cc(Nc2ncc3c(n2)CCCCC3=O)cs1 [KG-0338] | < 1 µM |  |
